Values of other authors as cited in US20250275973A1, “USE OF ALC1 INHIBITORS AND SYNERGY WITH PARPI” (EISBACH BIO GMBH, priority 2022, published 2025).

Tested on: GFP-tagged PARP1 and PARP2
Conditions: U2OS cells treated with PARPi; background section

Compound | retention/recruitment of GFP-tagged PARP1 and PARP2 at induced DNA lesions
Cn1ncnc1[C@H]1c2n[nH]c(=O)c3cc(F)cc(c23)N[C@@H]1c1ccc(F)cc1 [talazoparib] | enhanced retention
C[C@]1(c2nc3c(C(N)=O)cccc3[nH]2)CCCN1 [veliparib] | overall less PARP1/PARP2 recruitment
